What was measured:
[1] = tested on: human gastric cancer (MKN-28); assay: Example 5: FK330 with paclitaxel in MKN-28 tumor-bearing mice; format: in vivo, nude mice; details: for tumor volume on the last day of experiment: MKN-28, Day 84, mean±SEM
Method: Preparation of the test substances was carried out in the same manner as in Example 2.
Human gastric cancer-derived NCI-N87 (CRL-5822) was obtained from American Type Culture Collection (VA, USA), MKN-28 (JCRB0253) was obtained from Health Science Research Resources Bank (HSRRB), and AZ-521 (RCB2087) was obtained from Riken BRC. NCI-N87 and MKN-28 cells were cultured under the conditions of 37° C. and 5% CO2 by using RPMI1640 medium containing 10% heat-inactivated fetal bovine serum (FBS), and AZ-521 cells were cultured under the conditions of 37° C. and 5% CO2 by using DMEM medium containing 10% heat-inactivated FBS. The cells were harvested with trypsin and were suspended in PBS at 6×10^7 cells/mL, and the suspension was mixed with an equal amount of Matrigel (trade name) Basement Membrane Matrix (manufactured by Becton Dickinson Co., Bedford, Mass., USA).
Five-week old male nude mice (CAnN Cg-Foxn1nu/CrlCrlj(nu/nu)) were purchased from Charles River Laboratories Japan, Inc. (Japan, Kanagawa). The animals were raised under specific pathogen-free (SPF) conditions throughout the test period by feeding standard feedstuff and drinking water. The cultured cells were subcutaneously inoculated into the dorsal region of the nude mice at a concentration of 3×10^6 cells/0.1 mL/mouse. […]
Every 2 to 4 days, the body weight and the tumor diameters, determined by using a digital caliper, were measured. The tumor volume was calculated from the calculation formula for ellipsoid volume of (major axis×[minor axis]^2×0.52).
The results are expressed as the mean value (Mean)±standard error (SEM). Using the actual measured values of the tumor volume at each measurement time point, an unpaired statistical test (Student's t-test) of the difference between two groups was carried out between a single administration group and a combined use group. […]

[2] = tested on: ischemia/reperfusion injury in rat liver transplantation; details: reported in Non-Patent Documents 3 and 4; cited from earlier work

## O=C(/C=C/c1ccc(Cl)cc1)N[C@@H](Cc1ccccn1)C(=O)NCC(=O)N1CCC(Oc2cc(C(F)(F)F)ncn2)CC1 [FK330, N^2-[(2E)-3-(4-chlorophenyl)-2-propenoyl]-N-[2-oxo-2-(4-{[6-(trifluoromethyl)pyrimidin-4-yl]oxy}piperidin-1-yl)ethyl]-3-pyridin-2-yl-L-alaninamide]
[1]; combined use group paclitaxel + FK330 100 mg/kg bid
  tumor volume on the last day of experiment: 164.8±18.5 mm^3
[1]; MKN-28, last day, FK330 100 mg/kg bid + paclitaxel, P=0.08
  tumor volume decrease compared with the paclitaxel-only group: 63.7%
[2]
  efficacy for ischemia/reperfusion injury in rat liver transplantation: effective

## CC(=O)O[C@H]1C(=O)[C@@]2(C)[C@H]([C@H](OC(=O)c3ccccc3)[C@]3(O)C[C@H](OC(=O)[C@H](O)[C@@H](NC(=O)c4ccccc4)c4ccccc4)C(C)=C1C3(C)C)[C@]1(OC(C)=O)CO[C@@H]1C[C@@H]2O [paclitaxel, reference compound]
[1]; paclitaxel-only group 10 mg/kg/day i.v., three cycles
  tumor volume on the last day of experiment: 454.1±147.5 mm^3
